Measured values published in US20140315876A1, “BETA-LACTAMASE INHIBITORS” (priority 2013, published 2014).
Structures can show the parent of a compound that is named as a salt.

How the values were obtained:
[1] = system: bacterial strains that express KPC β-lactamases; assay: Synergy MIC / standard BLI potentiation MIC assay, strains expressing KPC β-lactamases; format: cell-based; settings: more active for at least one KPC strain and/or better spectrum of activity than Avibactam; in the presence of a β-lactam
Description: (§1) The experimental protocol was performed according to Clinical and Laboratory Standards Institute (CLSI) guidelines with modifications as described below (CLSI guidelines can be derived from the CLSI document M07-A9 published in January 2012: “Methods for Dilution Antimicrobial Susceptibility Tests for Bacteria That Grow Aerobically; Approved Standard-Ninth Edition”).
(§2) To prepare for MIC testing, frozen glycerol stocks of clinical isolates (Klebsiella pneumoniae, Eschericia coli, Enterobacter spp, Citrobacter spp, or Pseudomonas aeruginosa) were used to streak for isolated colonies on rich, non-selective, tryptic soy agar containing 5% sheep's blood (TSAB). Frozen glycerol stocks of laboratory engineered, isogenic E. coli strains, which contain cloned β-lactamase expressing plasmids were used to streak for isolated colonies on rich, selective LB agar supplemented with 25 μg/mL tetracycline to maintain the plasmid. All strains were incubated at 37° C. for 18-24 hrs.
(§3) On the day of testing, primary cultures were started by scraping off 5-10 colonies from the TSAB plates containing clinical strains or the tetracycline supplemented LB plates containing engineered strains. The clinical strain material was suspended in ˜5 mL of cation adjusted Mueller Hinton Broth (CAMHB) in 14 mL culture tubes. The engineered strain material was suspended in CAMHB (supplemented with 25 μg/mL tetracycline) in 14 mL culture tubes. All strains were incubated at 37° C. with aeration (200 rpm) for ˜2 hrs until the optical density at 600 nm (OD600) was ≧0.1.
(§4) The two compound components of the assay were each diluted in CAMHB and added to the 96-well broth microdilution assay plates. 50 μL of the β-lactam was added to each well of the assay plate in 2-fold dilutions with final concentrations ranging from 128 to 0.13 μg/mL. 25 μL of the BLI compound was added to all wells in the broth microdilution plates at a final concentration of 4 μg/mL. Inoculum cultures were prepared by standardizing the primary cultures to OD600=0.1 and then adding 20 μL of the adjusted primary culture per 1 mL CAMHB for clinical strains or CAMHB (supplemented with tetracycline at 100 μg/mL) for engineered strains, so that the final inoculum density was ˜10^5 colony forming units per milliliter. Diluted inoculum cultures were used to inoculate 25 μL per well in 96-well broth microdilution assay plates. The final volume of each well was 100 μL and contained a β-lactam at different concentrations, a BLI compound at 4 μg/mL concentration, the bacterial culture at an OD600 of approximately 0.001 and when necessary tetracycline at 25 μg/mL.
(§5) Plates were incubated for 18-20 hours at 37° C. with aeration (200 rpm). Following incubation, growth was confirmed visually placing plates over a viewing apparatus (stand with a mirror underneath) and then OD600 was measured using a SpectraMax 340PC384 plate reader (Molecular Devices, Sunnyvale, Calif.). Growth was defined as turbidity that could be detected with the naked eye or achieving minimum OD600 of 0.1. MIC values were defined as the lowest concentration producing no visible turbidity.
(§6) The synergy MIC (sMIC) assay determines the concentration of the BLI required to potentiate the activity of a fixed concentration of a β-lactam antibiotic against β-lactamase producing bacterial strains. The experimental protocol was performed according to Clinical and Laboratory Standards Institute (CLSI) guidelines with modifications as described below (CLSI guidelines can be derived from the CLSI document M07-A9 published in January 2012: “Methods for Dilution Antimicrobial Susceptibility Tests for Bacteria That Grow Aerobically; Approved Standard-Ninth Edition”). […]

[2] = system: bacterial strains that express the class D cephalosporinase OXA-15; assay: Synergy MIC / standard BLI potentiation MIC assay, strains expressing OXA-15; format: cell-based, E. coli; settings: in the presence of a β-lactam; comparator Avibactam (comparator compound CCC)
Description: as §1, §2, §3, §4, §5, §6

| Structure (SMILES) | activity and/or spectrum of activity against bacterial strains that express KPC β-lactamases, compared with Avibactam [1] | activity against bacterial strains that express the class D cephalosporinase OXA-15, compared with Avibactam [2] |
| --- | --- | --- |
| N[C@H]1C[C@@H](c2nnc([C@@H]3CC[C@@H]4CN3C(=O)N4OS(=O)(=O)O)s2)C1 [Compound 795, (2S,5R)-2-(5-((1s,3R)-3-aminocyclobutyl)-1,3,4-thiadiazol-2-yl)-7-oxo-1,6-diazabicyclo[3.2.1]octan-6-yl hydrogen sulfate] | more active than Avibactam | more active than Avibactam |
| O=C1N2C[C@@H](CC[C@H]2c2nnc(CN3CCNCC3)o2)N1OS(=O)(=O)O [Compound 777, (2S,5R)-7-oxo-2-(5-(piperazin-1-ylmethyl)-1,3,4-oxadiazol-2-yl)-1,6-diazabicyclo[3.2.1]octan-6-yl hydrogen sulfate] | more active than Avibactam | more active than Avibactam |
| CC(C)(N)Cc1nnc([C@@H]2CC[C@@H]3CN2C(=O)N3OS(=O)(=O)O)o1 [Compound 737, (2S,5R)-2-(5-(2-amino-2-methylpropyl)-1,3,4-oxadiazol-2-yl)-7-oxo-1,6-diazabicyclo[3.2.1]octan-6-yl hydrogen sulfate] | more active than Avibactam | more active than Avibactam |
| O=C1N2C[C@@H](CC[C@H]2c2nnc(CCCCNC3CCNCC3)o2)N1OS(=O)(=O)O [Compound 772, (2S,5R)-7-oxo-2-(5-(4-(piperidin-4-ylamino)butyl)-1,3,4-oxadiazol-2-yl)-1,6-diazabicyclo[3.2.1]octan-6-yl hydrogen sulfate] | more active than Avibactam | more active than Avibactam |
| O=C1N2C[C@@H](CC[C@H]2c2nnc(CCNC3CNC3)o2)N1OS(=O)(=O)O [Compound 745, (2S,5R)-2-(5-(2-(azetidin-3-ylamino)ethyl)-1,3,4-oxadiazol-2-yl)-7-oxo-1,6-diazabicyclo[3.2.1]octan-6-yl hydrogen sulfate] | more active than Avibactam | more active than Avibactam |
| N=C(N)NCCc1nnc([C@@H]2CC[C@@H]3CN2C(=O)N3OS(=O)(=O)O)s1 [Compound 794, (2S,5R)-2-(5-(2-guanidinoethyl)-1,3,4-thiadiazol-2-yl)-7-oxo-1,6-diazabicyclo[3.2.1]octan-6-yl hydrogen sulfate] | more active than Avibactam | more active than Avibactam |
| N[C@H]1C[C@@H](NCc2nnc([C@@H]3CC[C@@H]4CN3C(=O)N4OS(=O)(=O)O)o2)C1 [Compound 756, (2S,5R)-2-(5-((((1s,3R)-3-aminocyclobutyl)amino)methyl)-1,3,4-oxadiazol-2-yl)-7-oxo-1,6-diazabicyclo[3.2.1]octan-6-yl hydrogen sulfate] | more active than Avibactam | more active than Avibactam |
| NC1CCN(CCc2nnc([C@@H]3CC[C@@H]4CN3C(=O)N4OS(=O)(=O)O)o2)CC1 [Compound 775, (2S,5R)-2-(5-(2-(4-aminopiperidin-1-yl)ethyl)-1,3,4-oxadiazol-2-yl)-7-oxo-1,6-diazabicyclo[3.2.1]octan-6-yl hydrogen sulfate] | more active than Avibactam |  |
